Measured values reported in patent EP0423240B1, “MODULATION OF VIRUS-HOST CELL INTERACTIONS USING CYCLIC OLIGOSACCHARIDES” (THE TRUSTEES OF THE UNIVERSITY OF PENNSYLVANIA, priority 1988, dated 1990).

System: HIV-1
Assay: Viral RNA analysis by dot blot
Type: cell-based
Conditions: 1 mM
Method: Virus particles were incubated with target cells in the presence or absence of […] of β-CD-14S. At 72 hours post infection, the cells were washed and dot blot assays were performed to determine the presence or absence of viral RNA production. In (A), target cells were infected in the presence of sulfated β-cyclodextrin (lane A), in the absence of cyclodextrins (lane B), or in the presence of unsubstituted β-cyclodextrin (lane C). 1/2 dilutions of cells are from left to right starting with 10⁶ cell/well utilized. In (B), virally infected cells (+) or uninfected cells (-) were assayed for their ability to produce viral RNA by dot blot analysis. CD = infected cells incubated with 1 mM of β-CD-14S. 1/2 dilutions of cells are from top to bottom starting with 10⁶ cell/well.
Virus treated cells were grown in tissue culture and harvested for assay at 72 hrs. post-infection. The cell concentrations were then adjusted to 1 x 10⁶ cells/m1 with phosphate buffered saline and spotted directly onto prewetted gene screen utilizing a dot blot apparatus. The filter was then fixed in 3% NaC1, 10 mM NaH₂PO₄, (pH 7.2) containing 1% gluteraldehyde at 4°C for 1 hr. The fixed blot was then rinsed three times with proteolytic buffer (50mM EDTA, 0.1 M Tris-HC1 (pH 8.0), 20 µg/ml proteinase K) for 30 minutes at 37°C. The filter was air dried until being probed. A Sall-Xho1 probe derived from the pIIIenv1 plasmid (a generous gift of Dr. J. Sodrofsky) and encoding the envelope region of the HXB2, HIV-1 virus was labeled by the random primer method using standard technology and hybridized to the filter as previously described (Weiner et al., 1986, Cell Immunol. 100:197).
To determine if the cyclodextrins were interfering with steps relevant to viral replication, the ability of these compounds to inhibit viral nucleic acid synthesis was determined. Virus particles were incubated with target cells in the presence or absence of 1 mM of β-CD-14S. At 72 hours post-infection, the cells were washed and dot blot assays were performed to determine the presence or absence of viral RNA production. […]

Question: Which results are given for “beta-cyclodextrin tetradecasulfate [Beta-CD-14S]”?
Answer: ability of infected cells to produce viral RNA (already infected cells incubated with compound): not inhibited in their ability to produce viral RNA; HIV-1 specific RNA (target cells infected in the presence of compound, 72 hours post-infection): little or no HIV-1 specific RNA was detected
